Laboratory results published in article PMC4601051, “Discovery of Indoline-2-carboxamide Derivatives as a New Class of Brain-Penetrant Inhibitors of Trypanosoma brucei” (Journal of Medicinal Chemistry, 2015).
≈ marks a conversion by molar mass, not a printed value. Where “and” joins values, the source holds several entries; their conditions need not be identical. Equal values may be shown once. Read-outs that look alike come from different tables or passages of the source.

Experiments:
[1] = Microsomal intrinsic clearance (Clint), mouse; format: in vitro ADME; details: mouse liver microsomes, 0.5 μM compound
Method: Each test compound (0.5 μM) was incubated with pooled female CDI mouse liver microsomes, pooled male Sprague–Dawley rat microsomes, or pooled mixed gender human liver microsomes (Tebu-Bio, UK; 0.5 mg/mL 50 mM potassium phosphate buffer, pH 7.4) and the reaction started with addition of excess NADPH (8 mg/mL, 50 mM potassium phosphate buffer, pH 7.4). Immediately, at time zero, then at 3, 6, 9, 15, and 30 min, an aliquot (50 μL) of the incubation mixture was removed and mixed with acetonitrile (100 μL) to stop the reaction. Internal standard was added to all samples, and the samples were centrifuged at 1825g for 10 min to sediment precipitated protein. The plates were then sealed prior to UPLC/MS/MS analysis using a Quattro Premier XE (Waters Corporation, USA).
XLfit (IDBS, UK) was used to calculate the exponential decay and consequently the rate constant (k) from the ratio of peak area of test compound to internal standard at each time point.

[2] = Aqueous kinetic solubility by laser nephelometry; format: physicochemical; details: aqueous medium, Table 7
Method: (§1) The software package StarDrop by Optibrium was used to calculate physicochemical parameters including log P, molecular weight, and polar surface area (PSA). The aqueous kinetic solubility of the compounds was measured using laser nephelometry as previously described.[40] The plasma protein binding of the compounds was determined by the equilibrium dialysis method.[12]

[3] = Plasma protein binding by equilibrium dialysis, mouse; format: in vitro ADME; details: read-out: plasma protein binding, Fu (fraction unbound)
Method: as §1

[4] = Brain tissue binding by equilibrium dialysis; format: in vitro ADME; details: Sprague-Dawley, brain homogenate; rat (male SD rat); read-out: brain tissue binding (rat), Fu
Method: In brief, a 96-well equilibrium dialysis apparatus was used to determine the free fraction in the brain for the test compound (HT Dialysis LLC, Gales Ferry, CT). Membranes (12–14 kDa A cutoff) were conditioned in deionized water for 60 min, followed by conditioning in 80:20 deionized water:ethanol for 20 min and then rinsed in artificial cerebrospinal fluid (CSF) before use. Mouse brain was removed from the freezer and allowed to thaw on the day of experiment. […] Diluted brain homogenate was spiked with the test compound (10 ug/g), and 150 μL aliquots (n = 6 replicate determinations) loaded into the 96-well equilibrium dialysis plate. Dialysis vs artificial CSF (150 μL) was carried out for 5 h in a temperature controlled incubator at ca. 37 °C (Stuart scientific Ltd., UK) using an orbital microplate shaker at 125 rpm (Stuart scientific Ltd., UK). […] All samples were analyzed by means of UPLC/MS/MS on a Quattro Premier XE mass spectrometer (Waters Corporation, USA). The unbound fraction was determined as the ratio of the peak area in artificial CSF to that in brain, with correction for dilution factor according to eq 1.[42] […] 1 where D = dilution factor in brain homogenate and Fu,apparent is the measured free fraction of diluted brain homogenate.

[5] = In vivo mouse pharmacokinetics; details: for Cmax / Tmax / half-life / AUC(0-t) at 8 h / AUC(0-t): female, mouse, in vivo, 10 mg/kg, NMRI mice; for AUC(0-t) at 8 h: read-out: AUC0–8; for AUC(0-t): read-out: AUC0–8 (converted)
Method: Each compound was dosed as a bolus solution intraperitoneally at 10 mg free base/kg (dose volume, 10 mL/kg; dose vehicles used, 10% DMSO; 40% PEG400; 50% Milli-Q water or 5% DMSO; 40% PEG400; 55% saline) to female HRN (1 only) or NMRI mice (n = 3) or dosed orally by gavage as a solution at 10 mg free base/kg (dose volume, 10 mL/kg; dose vehicle, 10% DMSO; 40% PEG400; 50% Milli-Q water) to female NMRI mice (n = 3). Female NMRI mice were chosen, as these represent the sex and strain used for the stage 1 and stage 2 HAT efficacy models. Blood samples were taken from each mouse at 5 (IP only), 15, and 30 min, 1, 2, 4, 6, and 8 h post dose, mixed with two volumes of distilled water, and stored frozen until UPLC/MS/MS analysis. Pharmacokinetic parameters were derived from noncompartmental analysis of the blood concentration time curve using PK solutions software v 2.0 (Summit Research Services, USA).

[6] = Mouse brain penetration (brain:blood ratio); details: in vivo, dosed intravenously at 0.5 or 1 mg/kg, levels measured after 5 min, female NMRI mice, read-out: B:B (brain to blood ratio)
Method: Each compound was dosed as a bolus solution intravenously at 0.5 or 1 mg free base/kg (dose volume, 5 mL/kg; dose vehicle, 10% DMSO; 40% PEG400; 50% Milli-Q water) to female NMRI mice (n = 6). At 5 and 30 min following intravenous bolus injection of test compound, mice (n = 3/time point) were placed under terminal anesthesia with isofluorane. A blood sample was taken by cardiac puncture and mixed with two volumes of distilled water, the mice decapitated, and the brain removed. Diluted blood and brains were stored frozen until preparation and analysis by UPLC/MS/MS. For each mouse at each time point, the concentration in brain (ng/g) was divided by the concentration in blood (ng/mL) to give a brain:blood ratio. The mean value obtained was quoted.

[7] = tested on: panel of receptors, including dopamine, serotonin, histamine, and muscarinic receptors; experiment: NIMH Psychoactive Drug Screening Program (PDSP) receptor panel; format: binding; details: significant inhibition is considered > 50%
Excerpt: However, the observed toxicity prevents further progression of the compounds. To try and identify a possible driver for toxicity, that may then offer an opportunity to design out this unwanted effect, the key compounds were screened against a panel of receptors at the NIMH Psychoactive Drug Screening Program (PDSP).[36],[37] No significant activity against a large panel of receptors, including dopamine, serotonin, histamine, and muscarinic receptors (see Supporting Information) was observed.
S2: Details of receptors screened at the NIMH Psychoactive Drug Screening Program […]
receptors screened. Significant inhibition is considered > 50%. In cases where negative inhibition (-) is seen, this represents a stimulation of binding. The receptors screened were 5- […]
HT7, Alpha1A, Alpha1B, Alpha1D, Alpha2A, Alpha2B, Alpha2C, Beta1, Beta2, Beta3, BZP rat Brain site, D1, D2, D3, D4, D5, DAT, DOR, GABBA, H1, H2, H3, KOR, M1, M2, M3, M4, M5, MOR, NET, PBR, SERT, Sigma1 and Sigma2

in vitro = details: human, MRC-5 fibroblasts
Method: Proliferation assays using bloodstream form T. brucei brucei and human MRC-5 fibroblasts were conducted using a modification of the cell viability assay as previously reported.[27],[39]
MRC-5 cells (2000 cells per well) were seeded in 200 μL of DMEM, 10% FCS, and allowed to adhere overnight. One microliter of test compound was added to each well on the day of assay initiation.
The final DMSO level was 0.5% in all cases.

CNC(=O)[C@H]1Cc2ccccc2N1C(=O)Cc1ccc(F)cc1 [Compound 47, (R)-1-(2-(4-Fluorophenyl)acetyl)-N-methylindoline-2-carboxamide]
mouse microsomal intrinsic clearance [1]: 1.9 mL min^–1 g^–1 and 1.9/ND mL min^–1 g^–1 | solubility [2]: 0.064 mg/mL (≈ 205 µM) | fraction unbound [3]: 0.59 | fraction unbound at 5 h, 10 ug/g [4]: 0.43 | higher AUC compared to 1 ([5]; IP, female NMRI mice): 1.5–6.5 fold | Cmax ([5]; IP): 2300 ng/mL and 7.4 µM | Tmax ([5]; IP): 15 min | half-life ([5]; IP): 30 min | AUC(0-t) at 8 h ([5]; IP): 9.1 µM·h | AUC(0-t) ([5]; IP): 2.83 µg·h/mL | Cmax ([5]; PO): 750 ng/mL and 2.4 µM | Tmax ([5]; PO): 30 min | half-life ([5]; PO): 36 min | AUC(0-t) at 8 h ([5]; PO): 3.3 µM·h | AUC(0-t) ([5]; PO): 1.02 µg·h/mL | Kp at 5 min [6]: 0.9 | inhibition against receptors screened [7]: did not show significant inhibitor | EC50 at 69 h (in vitro): > 50 µM
